Measurements as given in patent publication US6166063A, “N-(substituted glycyl)-2-cyanopyrrolidines, pharmaceutical compositions containing them and their use in inhibiting dipeptidyl peptidase-IV” (Novartis AG, priority 1999, dated 2000).

Key:
insulin resistant rats = assay: Early insulin response to an oral glucose challenge in insulin resistant rats; type: in vivo, Male Sprague-Dawley rats; settings: 10 μmol/kg oral in CMC, 30 min before oral glucose 1 g/kg; high fat diet rats; % increase of the mean of the control animals
Procedure: Male Sprague-Dawley rats that had been fed a high fat diet (saturated fat=57% calories) for 2-3 weeks were fasted for approximately 2 hours on the day of testing, divided into groups of 8-10, and dosed orally with 10 μmol/kg of the test compounds in CMC. An oral glucose bolus of 1 g/kg was administered 30 minutes after the test compound directly into the stomach of the test animals. Blood samples, obtained at various timepoints from chronic jugular vein catheters, were analyzed for plasma glucose and immunoreactive insulin (IRI) concentrations, and plasma DPP-IV activity. Plasma insulin levels were assayed by a double antibody radioimmunoassay (RIA) method using a specific anti-rat insulin antibody from Linco Research (St. Louis, Mo.). The RIA has a lower limit of detection of 0.5 μU/mL with intra- and inter-assay variations of less than 5%. Data are expressed as % increase of the mean of the control animals. Upon oral administration, each of the compounds tested amplified the early insulin response which led to an improvement in glucose tolerance in the insulin resistant test animals.

rat plasma DPP-IV = rat plasma DPP-IV (Rattus norvegicus, UniProt P14740); assay: DPP-IV inhibition in rat plasma
Chain of rat plasma DPP-IV (P14740 37-767 limits assumed): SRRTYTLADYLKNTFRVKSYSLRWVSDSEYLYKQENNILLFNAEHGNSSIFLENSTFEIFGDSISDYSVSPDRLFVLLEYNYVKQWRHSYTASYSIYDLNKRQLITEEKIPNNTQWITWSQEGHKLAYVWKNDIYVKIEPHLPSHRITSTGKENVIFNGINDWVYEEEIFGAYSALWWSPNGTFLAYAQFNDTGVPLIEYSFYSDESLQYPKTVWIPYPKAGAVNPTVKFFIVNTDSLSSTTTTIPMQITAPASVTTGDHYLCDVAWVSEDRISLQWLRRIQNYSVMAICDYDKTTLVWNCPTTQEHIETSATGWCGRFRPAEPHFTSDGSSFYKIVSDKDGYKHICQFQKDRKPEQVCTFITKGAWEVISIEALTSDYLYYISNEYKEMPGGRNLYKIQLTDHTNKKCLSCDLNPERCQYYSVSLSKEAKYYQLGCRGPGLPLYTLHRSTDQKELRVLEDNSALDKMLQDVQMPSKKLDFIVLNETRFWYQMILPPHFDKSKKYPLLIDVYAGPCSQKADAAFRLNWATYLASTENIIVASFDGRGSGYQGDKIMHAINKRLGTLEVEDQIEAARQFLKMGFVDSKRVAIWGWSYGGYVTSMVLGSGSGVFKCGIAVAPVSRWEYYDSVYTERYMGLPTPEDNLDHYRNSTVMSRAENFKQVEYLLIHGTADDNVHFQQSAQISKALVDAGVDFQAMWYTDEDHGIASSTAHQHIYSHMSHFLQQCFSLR
Procedure: (§1) Briefly, 5 μl of plasma are added to 96-well flat-bottom microtiter plates (Falcon), followed by the addition of 5 μl of 80 mM MgCl2 in incubation buffer (25 mMHEPES, 140 mM NaCl, 1% RIA-grade BSA, pH 7.8). After a 60 min. incubation at room temperature, the reaction is initiated by the addition of 10 μl of incubation buffer containing 0.1 mM substrate (H-Glycine-Proline-AMC;AMC is 7-amino-4-methylcoumarin). The plates are covered with aluminum foil (or kept in the dark) and incubated at room temperature for 20 min. […] A fluorescence-concentration curve of free AMC is generated using 0-50 μM solutions of AMC in assay buffer. The curve generated is linear and is used for interpolation of substrate consumption (catalytic activity in nmoles substrate cleaved/min). As with the previous assay, the potency of the test compounds as DPP-IV inhibitors, expressed as IC50, is calculated from 8-point, dose-response curves using a 4 parameter logistic function.

human plasma DPP-IV = human plasma DPP-IV (Homo sapiens, UniProt P27487); assay: DPP-IV inhibition in human plasma; type: biochemical; settings: substrate H-Glycine-Proline-AMC, pH 7.8, room temperature, 8-point curve
Chain of human plasma DPP-IV (P27487 39-766 limits assumed): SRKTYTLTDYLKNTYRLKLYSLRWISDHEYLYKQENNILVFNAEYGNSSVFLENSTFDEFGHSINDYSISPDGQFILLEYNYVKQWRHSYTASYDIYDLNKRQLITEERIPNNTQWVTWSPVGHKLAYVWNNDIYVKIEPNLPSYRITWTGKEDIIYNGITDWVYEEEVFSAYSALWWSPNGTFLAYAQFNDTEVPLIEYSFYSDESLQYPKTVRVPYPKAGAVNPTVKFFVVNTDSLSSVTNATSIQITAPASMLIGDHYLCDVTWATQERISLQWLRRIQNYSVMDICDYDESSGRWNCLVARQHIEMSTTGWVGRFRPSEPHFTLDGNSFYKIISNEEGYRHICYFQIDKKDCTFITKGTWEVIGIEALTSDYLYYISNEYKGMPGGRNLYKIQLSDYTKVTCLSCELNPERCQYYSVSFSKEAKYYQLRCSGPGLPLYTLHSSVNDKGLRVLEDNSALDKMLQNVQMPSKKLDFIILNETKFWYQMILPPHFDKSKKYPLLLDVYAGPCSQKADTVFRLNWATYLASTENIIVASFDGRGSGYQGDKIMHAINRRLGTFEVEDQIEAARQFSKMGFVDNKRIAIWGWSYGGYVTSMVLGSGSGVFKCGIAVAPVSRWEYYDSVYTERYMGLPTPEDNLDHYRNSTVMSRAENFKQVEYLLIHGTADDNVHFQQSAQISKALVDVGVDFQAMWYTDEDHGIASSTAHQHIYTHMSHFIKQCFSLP
Procedure: as §1

Row | SMILES | Increase of Insulin Response (insulin resistant rats) | IC50 (rat plasma DPP-IV) | IC50 (human plasma DPP-IV)
1 | N#C[C@@H]1CCCN1C(=O)CNC12CC3CC(CC(O)(C3)C1)C2 [Ex. 1, Pyrrolidine, 1-[(3-hydroxy-1-adamantyl)amino]acetyl-2-cyano-, (S)] | 64% |  | 
2 | N#C[C@@H]1CCCN1C(=O)CNC1C2CC3CC1CC(O)(C3)C2 (stereo partly drawn) [Ex. 8, Pyrrolidine, 1-[[(5-hydroxy-2-adamantyl)amino]-acetyl]-2-cyano-, (S)-] |  | 12 nM | 6 nM
